Results published in US6777414B1, “Nitrogen-containing heterocyclic compounds and benamide compounds and drugs containing the same” (Meiji Seika Kaisha, Ltd., priority 1999, dated 2004).

Key:
wistar rats (male) = experiment: Acute toxicity test in rats; format: in vivo; details: orally administered 200 mg/kg, observed for 8 days
Description: (§1) Test 3: Acute Toxicity Test
(§2) For the compound prepared in Example 104, an acute toxicity test was carried out using mice and rats according to a conventional method.

Hep G2 cells [1] = experiment: Apolipoprotein B secretion inhibitory activity (sandwich ELISA of culture supernatant); format: cell-based; details: Homo sapiens, HepG2, test compound 1 μM
Description: Test 2: Apolipoprotein B Secretion Inhibitory Activity
The apolipoprotein B secretion inhibitory activity of compounds according to the present invention was examined using human hepatoma-derived cell line, Hep G2.
The test was carried out by partially modifying the method of Nagata et al. (Biochem. Pharmacol., 40, 843 (1990)) and the method of Furukawa et al. (J. Biol. Chem., 267, 22630 (1992)). Specifically, Hep G2 cells were cultivated in a Dulbecco modified Eagles's medium (DMEM) containing 10% fetal calf serum (FCS), 100 units/ml penicillin, and 100 μg/ml streptomycin on a 96-well plate. Thereafter, the medium was replaced by DMEM containing 1% bovine serum albumin. At the same time, the test compound was added to a final concentration of 1 μM, followed by cultivation, or cultivation was carried out without the addition of the test compound. Three hours after the replacement of the medium, acetic acid was added to a final concentration of 1 mM, and cultivation was continued for additional 4 hours. The amount of apolipoprotein B secreted in the supernatant of the culture thus obtained was determined by the sandwich ELISA method. Goat anti-human apolipoprotein B polyclonal antibody (CHEMICON) was used as the primary antibody, and mouse anti-human apolipoprotein B monoclonal antibody peroxydase conjugate (BIOSYS) was used as the secondary antibody.
The inhibition (%) of secretion of apolipoprotein B was calculated by the following equation.
Inhibition (%) of secretion of apolipoprotein B={1−(amount of apolipoprotein B secreted in the presence of test compound)/(amount of apolipoprotein B secreted in the absence of test compound)}×100

Hep G2 cells [2] = experiment: Triglyceride biosynthesis inhibitory activity (14C-acetic acid incorporation into triglyceride); format: cell-based; details: Homo sapiens, HepG2, test compound 1 μM
Description: Test 1: Triglyceride Biosynthesis Inhibitory Activity
The triglyceride biosynthesis inhibitory activity of compounds according to the present invention was examined using human hepatoma-derived cell line, Hep G2.
The test was carried out by partially modifying the method of Nagata et al. (Biochem. Pharmacol., 40, 843 (1990)) and the method of Furukawa et al. (J. Biol. Chem., 267, 22630 (1992)). Specifically, Hep G2 cells were cultivated in a Dulbecco modified Eagles's medium (DMEM) containing 10% fetal calf serum (FCS), 100 units/ml penicillin, and 100 μg/ml streptomycin on a 96-well plate. Thereafter, the medium was replaced by DMEM containing 1% bovine serum albumin. At the same time, the test compound was added to a final concentration of 1 μM, followed by cultivation, or cultivation was carried out without the addition of the test compound. Three hours after the replacement of the medium, ^14C-acetic acid was added to a final concentration of 1 mM, and cultivation was continued for additional 4 hours. After the cells were washed with a phosphate buffer (pH 7.5) containing 150 mM sodium chloride, lipids within the cells were extracted with n-butanol. After the extraction, the extract was evaporated to dryness under a nitrogen stream. The solid obtained by the evaporation to dryness was dissolved in a minor amount of chloroform. The solution was developed by thin layer chromatography (development solvent: petroleum ether/diethyl ether/acetic acid=90/15/3) to separate a ^14C-triglyceride fraction, and the amount of ^14C-triglyceride produced was then determined with a liquid scintillation counter (Beckman, LS-6500).
The inhibition (%) of biosynthesis of triglyceride was calculated by the following equation.
Inhibition of biosynthesis of triglyceride (%)={1−(amount of ^14C-triglyceride produced in the presence of test compound)/(amount of ^14C-triglyceride produced in the absence of test compound)}×100

ddY mice (male) = experiment: Acute toxicity test in mice; format: in vivo; details: orally administered 200 mg/kg, observed for 8 days
Description: as §1, §2

SMILES: O=C1c2cc(N3CCN(CCC(c4ccccc4)c4ccccc4)CC3)ncc2CCN1Cc1ccccc1 [Example 104, 2-Benzyl-7-[4-(3,3-diphenyl-1-propyl)piperazin-1-yl]-3,4-dihydro-2H-2,6-naphthyridin-1-one]
- Change in general conditions, such as weight, in acute toxicity test (wistar rats (male)): any change in general conditions, such as a change in weight, did not occur
- Survival in acute toxicity test (wistar rats (male)): all the animals survived
- inhibition at 1 µM (Hep G2 cells [1]): 84%
- inhibition at 1 µM (Hep G2 cells [2]): 83%
- Change in general conditions, such as weight, in acute toxicity test (ddY mice (male)): any change in general conditions, such as a change in weight, did not occur
- Survival in acute toxicity test (ddY mice (male)): all the animals survived

SMILES: O=C1c2cc(N3CCN(CCCCC4(C(=O)NCC(F)(F)F)c5ccccc5-c5ccccc54)CC3)ccc2CCN1CC1CCCCO1 (centres unmarked) [Example 99, 2-(Tetrahydropyran-2-yl)methyl-7-[4-[4-[9-(2,2,2-trifluoroethylcarbamoyl)-9H-fluoren-9-yl]butyl]piperazin-1-yl]-3,4-dihydro-2H-isoquinolin-1-one]
- inhibition at 1 µM (Hep G2 cells [1]): ≥ 80%
- inhibition at 1 µM (Hep G2 cells [2]): 11%

SMILES: CC(C)N(C(=O)c1cccc(N2CCN(CCC(c3ccccc3)c3ccccc3)CC2)c1)C(C)C [Example 5, N,N-Diisopropyl-3-[4-(3,3-diphenyl-1-propyl)piperazin-1-yl]benzamide]
- inhibition at 1 µM (Hep G2 cells [1]): 92%
- inhibition at 1 µM (Hep G2 cells [2]): 8%

SMILES: O=c1c2cc(N3CCN(CCC(c4ccccc4)c4ccccc4)CC3)ccc2cnn1Cc1ccccc1 [Example 149, 2-Benzyl-7-[4-(3,3-diphenylpropyl)piperazin-1-yl]-2H-phthalazin-1-one]
- inhibition at 1 µM (Hep G2 cells [1]): 70%
- inhibition at 1 µM (Hep G2 cells [2]): 74%

SMILES: C=CCN(CC(F)(F)F)C(=O)C1(CCCCN2CCN(c3ccc4c(c3)C(=O)N(Cc3ccccc3)CC4)CC2)c2ccccc2-c2ccccc21 [Example 102, 7-[4-[4-[9-[Allyl-(2,2,2-trifluoroethyl)carbamoyl]-9H-fluoren-9-yl]butyl]piperazin-1-yl]-2-benzyl-3,4-dihydro-2H-isoquinolin-1-one]
- inhibition at 1 µM (Hep G2 cells [1]): 80%
- inhibition at 1 µM (Hep G2 cells [2]): 89%
